Measured values: ChEMBL document CHEMBL5058645, “Data for DCP probe JNJ-6204” (2022)

Columns and labels:
[1] = molecular target: Insulin-like growth factor 1 receptor (Homo sapiens) (UniProt P08069); assay: IGF-1R(h), activated Kinase panel; details: Compound concentration 1.0 uM, tested as the 2H-labelled form
[2] = molecular target: Transcription initiation factor TFIID subunit 1-like (Homo sapiens) (UniProt Q8IZX4); assay: TAF1L(h) Kinase panel; details: Compound concentration 1.0 uM, tested as the 2H-labelled form
[3] = molecular target: Tyrosine-protein kinase ZAP-70 (Homo sapiens) (UniProt P43403); assay: ZAP-70(h) Kinase panel; details: Compound concentration 1.0 uM, tested as the 2H-labelled form
[4] = molecular target: Sodium-dependent dopamine transporter (Homo sapiens, UniProt Q01959); details: Compound concentration 10.0 uM, tested as the 2H-labelled form
[5] = molecular target: MAP/microtubule affinity-regulating kinase 4 (Homo sapiens) (UniProt Q96L34); assay: MARK4(h) Kinase panel; details: Compound concentration 1.0 uM, tested as the 2H-labelled form
Sequence of MAP/microtubule affinity-regulating kinase 4 (Homo sapiens) (Q96L34 whole entry): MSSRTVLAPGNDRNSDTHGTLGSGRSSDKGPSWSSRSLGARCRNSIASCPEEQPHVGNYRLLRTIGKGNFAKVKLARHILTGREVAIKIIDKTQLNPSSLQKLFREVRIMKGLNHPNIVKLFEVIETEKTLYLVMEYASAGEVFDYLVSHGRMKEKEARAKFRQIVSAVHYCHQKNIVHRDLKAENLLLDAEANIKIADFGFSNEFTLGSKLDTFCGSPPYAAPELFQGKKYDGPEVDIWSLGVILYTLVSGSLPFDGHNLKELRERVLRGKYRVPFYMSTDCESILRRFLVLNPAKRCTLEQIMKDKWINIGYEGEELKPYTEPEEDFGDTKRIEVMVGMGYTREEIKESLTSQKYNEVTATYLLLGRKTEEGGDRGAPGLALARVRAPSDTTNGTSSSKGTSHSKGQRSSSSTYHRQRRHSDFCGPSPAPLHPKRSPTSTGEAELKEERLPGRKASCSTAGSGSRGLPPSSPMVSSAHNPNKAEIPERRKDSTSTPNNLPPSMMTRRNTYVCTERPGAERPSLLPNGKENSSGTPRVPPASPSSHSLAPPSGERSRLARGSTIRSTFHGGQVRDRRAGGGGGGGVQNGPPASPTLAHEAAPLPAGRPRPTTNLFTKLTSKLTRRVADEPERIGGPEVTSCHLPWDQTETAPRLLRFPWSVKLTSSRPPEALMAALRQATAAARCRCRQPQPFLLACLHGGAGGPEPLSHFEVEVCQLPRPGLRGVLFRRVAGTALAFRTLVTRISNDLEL

[6] = molecular target: Testis-specific serine/threonine-protein kinase 4 (Homo sapiens) (UniProt Q6SA08); assay: TSSK4(h) Kinase panel; details: Compound concentration 1.0 uM, tested as the 2H-labelled form
[7] = molecular target: Dual specificity protein kinase CLK2 (Homo sapiens) (UniProt P49760); assay: CLK2(h) Kinase panel; details: Compound concentration 1.0 uM, tested as the 2H-labelled form
[8] = molecular target: Ephrin type-A receptor 5 (Homo sapiens) (UniProt P54756); assay: EphA5(h) Kinase panel; details: Compound concentration 1.0 uM, tested as the 2H-labelled form
[9] = molecular target: 5'-AMP-activated protein kinase catalytic subunit alpha-2 (Homo sapiens, UniProt P54646); assay: AMPKalpha2(h) Kinase panel; details: Compound concentration 1.0 uM, tested as the 2H-labelled form
Sequence of 5'-AMP-activated protein kinase catalytic subunit alpha-2 (P54646 whole entry, looked up): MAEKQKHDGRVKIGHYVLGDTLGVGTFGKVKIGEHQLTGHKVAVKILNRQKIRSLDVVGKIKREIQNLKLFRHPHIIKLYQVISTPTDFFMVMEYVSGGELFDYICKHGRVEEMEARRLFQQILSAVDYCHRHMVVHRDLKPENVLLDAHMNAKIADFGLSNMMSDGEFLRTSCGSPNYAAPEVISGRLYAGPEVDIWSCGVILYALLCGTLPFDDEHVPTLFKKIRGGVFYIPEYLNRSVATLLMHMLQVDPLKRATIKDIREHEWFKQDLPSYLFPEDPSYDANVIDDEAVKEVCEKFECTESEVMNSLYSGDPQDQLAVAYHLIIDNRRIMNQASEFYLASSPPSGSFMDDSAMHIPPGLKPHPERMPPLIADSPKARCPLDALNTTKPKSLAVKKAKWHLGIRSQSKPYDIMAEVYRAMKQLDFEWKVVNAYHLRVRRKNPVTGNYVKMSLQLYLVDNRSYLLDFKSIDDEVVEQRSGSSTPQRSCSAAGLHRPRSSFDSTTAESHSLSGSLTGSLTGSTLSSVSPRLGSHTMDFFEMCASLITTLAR

[10] = molecular target: Alpha-2A adrenergic receptor (Homo sapiens) (UniProt P08913); details: Compound concentration 10.0 uM, tested as the 2H-labelled form
[11] = molecular target: Testis-specific serine/threonine-protein kinase 2 (Homo sapiens) (UniProt Q96PF2); assay: TSSK2(h) Kinase panel; details: Compound concentration 1.0 uM, tested as the 2H-labelled form
[12] = molecular target: Tyrosine-protein kinase Lyn (Homo sapiens) (UniProt P07948); assay: Lyn(h) Kinase panel; details: Compound concentration 1.0 uM, tested as the 2H-labelled form
[13] = molecular target: SRSF protein kinase 3 (Homo sapiens) (UniProt Q9UPE1); assay: MSSK1(h) Kinase panel; details: Compound concentration 1.0 uM, tested as the 2H-labelled form
[14] = molecular target: Phosphatidylinositol 5-phosphate 4-kinase type-2 alpha (Homo sapiens) (UniProt P48426); assay: PIP4K2a(h) Kinase panel; details: Compound concentration 1.0 uM, tested as the 2H-labelled form
[15] = molecular target: Interleukin-1 receptor-associated kinase 4 (Homo sapiens) (UniProt Q9NWZ3); assay: IRAK4(h) Kinase panel; details: Compound concentration 1.0 uM, tested as the 2H-labelled form
[16] = molecular target: Dual specificity mitogen-activated protein kinase kinase 1 (Homo sapiens) (UniProt Q02750); assay: MEK1(h) Kinase panel; details: Compound concentration 1.0 uM, tested as the 2H-labelled form
[17] = molecular target: Receptor-interacting serine/threonine-protein kinase 1 (Homo sapiens) (UniProt Q13546); assay: RIPK1(h) Kinase panel; details: Compound concentration 1.0 uM, tested as the 2H-labelled form
[18] = molecular target: G protein-coupled receptor kinase 3 (Homo sapiens) (UniProt P35626); assay: GRK3(h) Kinase panel; details: Compound concentration 1.0 uM, tested as the 2H-labelled form
[19] = molecular target: Muscarinic acetylcholine receptor M3 (Homo sapiens) (UniProt P20309); details: Compound concentration 10.0 uM, tested as the 2H-labelled form
[20] = molecular target: Tyrosine-protein kinase Yes (Homo sapiens) (UniProt P07947); assay: Yes(h) Kinase panel; details: Compound concentration 1.0 uM, tested as the 2H-labelled form
[21] = molecular target: Serine/threonine-protein kinase 35 (Homo sapiens) (UniProt Q8TDR2); assay: CLIK1(h) Kinase panel; details: Compound concentration 1.0 uM, tested as the 2H-labelled form
[22] = molecular target: Tyrosine-protein kinase JAK2 (Homo sapiens) (UniProt O60674); assay: JAK2(h) Kinase panel; details: Compound concentration 1.0 uM, tested as the 2H-labelled form
[23] = molecular target: Inhibitor of nuclear factor kappa-B kinase subunit epsilon (Homo sapiens) (UniProt Q14164); assay: IKKepsilon(h) Kinase panel; details: Compound concentration 1.0 uM, tested as the 2H-labelled form
[24] = molecular target: Protein kinase C gamma type (Homo sapiens) (UniProt P05129); assay: PKCgamma(h) Kinase panel; details: Compound concentration 1.0 uM, tested as the 2H-labelled form
[25] = molecular target: Epithelial discoidin domain-containing receptor 1 (Homo sapiens) (UniProt Q08345); assay: DDR1(h) Kinase panel; details: Compound concentration 1.0 uM, tested as the 2H-labelled form
[26] = molecular target: Serine/threonine-protein kinase 33 (Homo sapiens) (UniProt Q9BYT3); assay: STK33(h) Kinase panel; details: Compound concentration 1.0 uM, tested as the 2H-labelled form
Sequence of Serine/threonine-protein kinase 33 (Homo sapiens) (Q9BYT3 whole entry, looked up): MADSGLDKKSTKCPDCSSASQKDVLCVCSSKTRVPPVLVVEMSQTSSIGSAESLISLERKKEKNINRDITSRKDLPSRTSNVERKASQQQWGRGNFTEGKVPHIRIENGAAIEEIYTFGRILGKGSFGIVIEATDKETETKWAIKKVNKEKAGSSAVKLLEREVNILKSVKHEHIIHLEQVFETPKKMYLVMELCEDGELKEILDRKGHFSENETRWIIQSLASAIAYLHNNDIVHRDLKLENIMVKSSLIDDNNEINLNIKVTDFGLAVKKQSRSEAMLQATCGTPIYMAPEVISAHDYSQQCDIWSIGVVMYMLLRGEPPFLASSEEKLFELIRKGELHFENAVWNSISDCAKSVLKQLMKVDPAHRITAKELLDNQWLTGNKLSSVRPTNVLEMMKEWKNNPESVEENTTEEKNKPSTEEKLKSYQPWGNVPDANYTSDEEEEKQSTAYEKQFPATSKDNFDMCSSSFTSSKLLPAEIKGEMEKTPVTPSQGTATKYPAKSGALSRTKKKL

[27] = molecular target: SRSF protein kinase 1 (Homo sapiens) (UniProt Q96SB4); assay: SRPK1(h) Kinase panel; details: Compound concentration 1.0 uM, tested as the 2H-labelled form
[28] = molecular target: Protein kinase C eta type (Homo sapiens) (UniProt P24723); assay: PKCeta (h) Kinase panel; details: Compound concentration 1.0 uM, tested as the 2H-labelled form
[29] = molecular target: Angiopoietin-1 receptor (Homo sapiens) (UniProt Q02763); assay: Tie2 (h) Kinase panel; details: Compound concentration 1.0 uM, tested as the 2H-labelled form
[30] = molecular target: Proto-oncogene tyrosine-protein kinase receptor Ret (Homo sapiens) (UniProt P07949); assay: Ret(h) Kinase panel; details: Compound concentration 1.0 uM, tested as the 2H-labelled form
[31] = molecular target: MAPK/MAK/MRK overlapping kinase (Homo sapiens) (UniProt Q9UQ07); assay: MOK(h) Kinase panel; details: Compound concentration 1.0 uM, tested as the 2H-labelled form
Homo sapiens = organism: Homo sapiens; assay: CK2(h) Kinase panel; details: Compound concentration 1.0 uM, tested as the 2H-labelled form
[32] = molecular target: Serine/threonine-protein kinase 16 (Homo sapiens) (UniProt O75716); assay: STK16(h) Kinase panel; details: Compound concentration 1.0 uM, tested as the 2H-labelled form
[33] = molecular target: Serine/threonine-protein kinase NIM1 (Homo sapiens) (UniProt Q8IY84); assay: NIM1(h) Kinase panel; details: Compound concentration 1.0 uM, tested as the 2H-labelled form
Sequence of Serine/threonine-protein kinase NIM1 (Homo sapiens) (Q8IY84 whole entry): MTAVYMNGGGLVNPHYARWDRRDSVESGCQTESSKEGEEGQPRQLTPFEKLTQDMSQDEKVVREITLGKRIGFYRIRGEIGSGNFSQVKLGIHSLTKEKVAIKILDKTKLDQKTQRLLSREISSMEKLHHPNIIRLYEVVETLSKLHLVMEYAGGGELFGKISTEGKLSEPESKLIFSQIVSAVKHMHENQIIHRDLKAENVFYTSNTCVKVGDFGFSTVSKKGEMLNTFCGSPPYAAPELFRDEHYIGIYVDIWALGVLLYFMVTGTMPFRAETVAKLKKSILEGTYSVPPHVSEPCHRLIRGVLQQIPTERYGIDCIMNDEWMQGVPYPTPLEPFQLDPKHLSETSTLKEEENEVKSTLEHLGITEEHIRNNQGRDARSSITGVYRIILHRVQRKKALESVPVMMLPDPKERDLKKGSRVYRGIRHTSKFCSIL

[34] = molecular target: 5-hydroxytryptamine receptor 2C (Homo sapiens) (UniProt P28335); details: Compound concentration 10.0 uM, tested as the 2H-labelled form
[35] = molecular target: Alpha-2B adrenergic receptor (Homo sapiens) (UniProt P18089); details: Compound concentration 10.0 uM, tested as the 2H-labelled form
[36] = molecular target: Ribosomal protein S6 kinase alpha-1 (Homo sapiens) (UniProt Q15418); assay: Rsk1(h) Kinase panel; details: Compound concentration 1.0 uM, tested as the 2H-labelled form
[37] = molecular target: Serine/threonine-protein kinase LATS2 (Homo sapiens) (UniProt Q9NRM7); assay: LATS2(h) Kinase panel; details: Compound concentration 1.0 uM, tested as the 2H-labelled form
[38] = molecular target: Mitogen-activated protein kinase kinase kinase 11 (Homo sapiens) (UniProt Q16584); assay: MLK3(h) Kinase panel; details: Compound concentration 1.0 uM, tested as the 2H-labelled form
[39] = molecular target: Serine/threonine-protein kinase TAO3 (Homo sapiens) (UniProt Q9H2K8); assay: TAO3(h) Kinase panel; details: Compound concentration 1.0 uM, tested as the 2H-labelled form
[40] = molecular target: Mitogen-activated protein kinase 1 (Homo sapiens) (UniProt P28482); assay: MAPK1(h) Kinase panel; details: Compound concentration 1.0 uM, tested as the 2H-labelled form
[41] = molecular target: Tau-tubulin kinase 1 (Homo sapiens) (UniProt Q5TCY1); assay: TTBK1(h) Kinase panel; details: Compound concentration 1.0 uM, tested as the 2H-labelled form
[42] = molecular target: Cell division cycle 7-related protein kinase (Homo sapiens) (UniProt O00311); assay: Cdc7/cyclinB1(h) Kinase panel; details: Compound concentration 1.0 uM, tested as the 2H-labelled form
Sequence of Cell division cycle 7-related protein kinase (Homo sapiens) (O00311 whole entry, looked up): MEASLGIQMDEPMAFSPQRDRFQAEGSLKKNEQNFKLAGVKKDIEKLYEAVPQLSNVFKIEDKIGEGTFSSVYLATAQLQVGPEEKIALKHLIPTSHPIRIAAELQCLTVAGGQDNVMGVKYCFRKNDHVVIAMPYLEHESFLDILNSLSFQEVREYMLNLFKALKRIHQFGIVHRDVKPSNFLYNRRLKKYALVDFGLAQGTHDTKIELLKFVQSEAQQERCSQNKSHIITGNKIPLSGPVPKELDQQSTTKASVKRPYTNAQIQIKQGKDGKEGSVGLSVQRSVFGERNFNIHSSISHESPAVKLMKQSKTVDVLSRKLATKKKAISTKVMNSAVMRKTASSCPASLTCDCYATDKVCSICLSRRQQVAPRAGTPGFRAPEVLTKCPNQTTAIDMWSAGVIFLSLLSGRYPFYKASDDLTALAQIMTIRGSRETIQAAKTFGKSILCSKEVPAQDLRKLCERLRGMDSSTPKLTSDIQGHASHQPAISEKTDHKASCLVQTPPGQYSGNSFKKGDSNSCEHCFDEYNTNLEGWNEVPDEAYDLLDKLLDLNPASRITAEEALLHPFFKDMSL

[43] = molecular target: Serine/threonine-protein kinase SBK1 (Homo sapiens) (UniProt Q52WX2); assay: SBK1(h) Kinase panel; details: Compound concentration 1.0 uM, tested as the 2H-labelled form
[44] = molecular target: Casein kinase II subunit alpha (Homo sapiens) (UniProt P68400); assay: CK2alpha1(h) Kinase panel; details: Compound concentration 1.0 uM, tested as the 2H-labelled form
[45] = molecular target: Platelet-derived growth factor receptor alpha (Homo sapiens) (UniProt P16234); assay: PDGFRalpha(h) Kinase panel; details: Compound concentration 1.0 uM, tested as the 2H-labelled form
[46] = molecular target: Myosin light chain kinase 2, skeletal/cardiac muscle (Homo sapiens) (UniProt Q9H1R3); assay: MYLK2(h) Kinase panel; details: Compound concentration 1.0 uM, tested as the 2H-labelled form
[47] = molecular target: Cyclin-dependent kinase 12 (Homo sapiens) (UniProt Q9NYV4); assay: CDK12/cyclinK(h) Kinase panel; details: Compound concentration 1.0 uM, tested as the 2H-labelled form
Sequence of Cyclin-dependent kinase 12 (Homo sapiens) (Q9NYV4 whole entry, looked up): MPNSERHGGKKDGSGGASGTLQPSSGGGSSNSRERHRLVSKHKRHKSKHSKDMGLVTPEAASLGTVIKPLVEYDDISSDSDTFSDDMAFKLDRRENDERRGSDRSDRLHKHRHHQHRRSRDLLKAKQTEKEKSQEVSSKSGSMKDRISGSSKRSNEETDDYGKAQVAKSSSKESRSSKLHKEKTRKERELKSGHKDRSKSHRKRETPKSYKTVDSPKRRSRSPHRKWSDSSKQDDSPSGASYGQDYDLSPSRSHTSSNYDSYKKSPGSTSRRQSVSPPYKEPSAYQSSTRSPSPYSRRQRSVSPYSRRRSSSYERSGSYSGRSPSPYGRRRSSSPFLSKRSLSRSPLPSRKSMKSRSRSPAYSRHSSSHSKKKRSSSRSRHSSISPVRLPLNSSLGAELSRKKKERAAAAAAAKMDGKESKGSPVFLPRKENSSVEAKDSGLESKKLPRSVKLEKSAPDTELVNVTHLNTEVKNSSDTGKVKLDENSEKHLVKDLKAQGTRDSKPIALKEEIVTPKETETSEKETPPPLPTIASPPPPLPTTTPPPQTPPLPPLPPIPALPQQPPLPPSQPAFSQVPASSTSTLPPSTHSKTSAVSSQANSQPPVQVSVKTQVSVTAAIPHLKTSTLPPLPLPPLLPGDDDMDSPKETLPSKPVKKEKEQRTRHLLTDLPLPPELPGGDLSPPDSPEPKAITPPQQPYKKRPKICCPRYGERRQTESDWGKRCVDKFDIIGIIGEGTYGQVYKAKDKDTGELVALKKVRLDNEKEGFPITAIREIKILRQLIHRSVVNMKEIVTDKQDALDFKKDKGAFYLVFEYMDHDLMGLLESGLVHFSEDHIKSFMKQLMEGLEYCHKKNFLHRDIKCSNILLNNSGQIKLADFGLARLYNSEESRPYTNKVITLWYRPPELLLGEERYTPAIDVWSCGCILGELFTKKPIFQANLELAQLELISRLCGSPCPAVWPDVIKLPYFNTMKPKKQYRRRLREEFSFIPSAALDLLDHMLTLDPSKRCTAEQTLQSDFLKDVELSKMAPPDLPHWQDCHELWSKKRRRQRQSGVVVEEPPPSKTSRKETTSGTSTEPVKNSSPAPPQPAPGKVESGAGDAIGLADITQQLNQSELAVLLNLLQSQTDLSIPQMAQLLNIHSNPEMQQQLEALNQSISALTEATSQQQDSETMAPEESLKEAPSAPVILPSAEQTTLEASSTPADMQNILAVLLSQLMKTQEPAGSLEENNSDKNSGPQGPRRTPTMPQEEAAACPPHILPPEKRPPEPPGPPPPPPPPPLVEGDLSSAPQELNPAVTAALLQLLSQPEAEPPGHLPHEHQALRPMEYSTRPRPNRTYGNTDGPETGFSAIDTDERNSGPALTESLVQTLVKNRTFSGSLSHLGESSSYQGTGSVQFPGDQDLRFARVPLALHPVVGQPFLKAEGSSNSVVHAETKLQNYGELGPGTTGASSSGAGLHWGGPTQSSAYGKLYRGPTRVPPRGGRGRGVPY

[48] = molecular target: G protein-coupled receptor kinase 6 (Homo sapiens) (UniProt P43250); assay: GRK6(h) Kinase panel; details: Compound concentration 1.0 uM, tested as the 2H-labelled form
[49] = molecular target: NUAK family SNF1-like kinase 1 (Homo sapiens) (UniProt O60285); assay: ARK5(h) Kinase panel; details: Compound concentration 1.0 uM, tested as the 2H-labelled form
[50] = molecular target: Mitogen-activated protein kinase 14 (Homo sapiens, UniProt Q16539); assay: SAPK2a(h) Kinase panel; details: Compound concentration 1.0 uM, tested as the 2H-labelled form
[51] = molecular target: Interleukin-1 receptor-associated kinase 1 (Homo sapiens) (UniProt P51617); assay: IRAK1(h) Kinase panel; details: Compound concentration 1.0 uM, tested as the 2H-labelled form
Sequence of Interleukin-1 receptor-associated kinase 1 (Homo sapiens) (P51617 whole entry, looked up): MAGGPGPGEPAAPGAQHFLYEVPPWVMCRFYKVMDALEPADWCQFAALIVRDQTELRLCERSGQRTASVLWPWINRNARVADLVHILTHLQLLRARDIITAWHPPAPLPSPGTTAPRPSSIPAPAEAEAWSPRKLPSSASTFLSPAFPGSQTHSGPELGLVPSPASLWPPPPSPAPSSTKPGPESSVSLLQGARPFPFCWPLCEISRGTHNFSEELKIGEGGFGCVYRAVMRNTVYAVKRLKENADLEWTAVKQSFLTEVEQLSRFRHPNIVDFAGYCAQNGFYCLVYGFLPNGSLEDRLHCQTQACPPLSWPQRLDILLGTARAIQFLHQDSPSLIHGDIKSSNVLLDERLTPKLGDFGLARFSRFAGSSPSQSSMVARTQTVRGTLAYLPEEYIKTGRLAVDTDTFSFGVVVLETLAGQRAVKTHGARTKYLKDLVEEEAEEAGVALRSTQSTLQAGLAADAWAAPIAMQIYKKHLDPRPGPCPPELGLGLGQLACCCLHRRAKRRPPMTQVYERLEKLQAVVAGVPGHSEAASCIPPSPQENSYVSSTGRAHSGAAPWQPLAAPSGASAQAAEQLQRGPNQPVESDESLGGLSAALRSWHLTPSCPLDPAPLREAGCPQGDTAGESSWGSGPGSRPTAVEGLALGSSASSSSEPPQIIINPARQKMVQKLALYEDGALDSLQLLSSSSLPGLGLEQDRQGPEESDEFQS

Measured: inhibition

CC1(C)Cn2nc(-c3ccc(F)cn3)c(-c3ccnc4[nH]ncc34)c2CO1
inactive: [1] 1% | [2] 3% | [3] 12% | [4] 43.8% | [5] 4% | [6] 5% | [7] 14% | [8] -3% | [9] 31% | [10] 15.4% | [11] 11% | [12] 21% | [13] -8% | [14] 0% | [15] -7% | [16] 4% | [17] 5% | [18] 15% | [19] -2.78% | [20] -6% | [21] 13% | [22] 1% | [23] -1% | [24] 3% | [25] 11% | [26] 5% | [27] 2% | [28] 19% | [29] 1% | [30] 14% | [31] -9% | Homo sapiens 2% | [32] 8% | [33] 13% | [34] -1.69% | [35] 2.83% | [36] 9% | [37] 12% | [38] 5% | [39] 5% | [40] 20% | [41] 19% | [42] 10% | [43] -1% | [44] 2% | [45] 2% | [46] 23% | [47] -2% | [48] -9% | [49] 1% | [50] 12% | [51] 15%
